Measured values from PMC13032676, “PGM1 deficiency is linked to sarcomeric and mitochondrial dysfunction in patient-derived iPSC-cardiomyocytes” (Journal of Translational Medicine, 2026).
Entries after “also recorded” stand apart in the source; their conditions may differ.

How the values were obtained:
[1] = test system: PGM1-deficient fibroblasts; settings: ref [5], [61]; cited from earlier work
Text: First, we performed targeted tracer metabolomics studies of central carbon metabolism. Previously, decreased UDP-Hexose levels were linked to reduced glycosylation in PGM1-CDG, which improve in presence of galactose.

PGM1-deficient iCMs = test: Untargeted N-glycoproteomics; format: cell-based, human; settings: low galactose in culture medium (in-house estimate 0.5 mM), no galactose-free arm
Description: Untargeted proteomics and N-glycoproteomics were performed to assess the (glyco)protein expression changes between PGM1-deficient and CTR iCMs based on previously published protocols (see supplementary materials for details).
Proteomics and N-glycoproteomics data analysis was performed as described previously. The proteomics data were searched using Sequest search engine in Proteome Discoverer 3.0 against the human Uniprot protein database. The N-glycoproteomics data using the publicly available software pGlyco version 3 with an in-built N-glycan database for identifying glycans and human Uniprot protein database for identifying peptide sequence. Two missed cleavages were allowed for both proteomics and glycoproteomics analysis. Error tolerance for precursor and fragment ions were set to 10 ppm and 0.02 Da, respectively, for proteomics and 10 ppm and 20 ppm, respectively, for glycoproteomics. […] For proteomics, quantitation of peptides across PGM1-CDG and […] was done using TMT reporter ion intensities using “reporter ion quantifier” node. To quantify glycopeptides, reporter ion quantification was performed for glycoproteomics raw files in Proteome Discoverer and glycopeptide IDs obtained from pGlyco were matched with quantitation on a scan-to-scan basis (MS/MS). […]

PGM1-CDG individuals = settings: [5], [10], [11], [13] (b5), ref [7], cited from earlier work
human PGM1 = biological target: T1, human PGM1 (Homo sapiens, UniProt P36871); test: Microscale-thermophoresis binding of ZM peptides to PGM1; settings: His6-PGM1 labeled with RED-tris-NTA, 50 nM labeled PGM1, peptide 375 mM to 11.4 nM (16-step series), 10 min in the dark, 22 °C, 40% excitation power, 40% MST power, MO.Affinity v.2.2.4
T1 construct: made in house
T1 sequence (P36871 1-562): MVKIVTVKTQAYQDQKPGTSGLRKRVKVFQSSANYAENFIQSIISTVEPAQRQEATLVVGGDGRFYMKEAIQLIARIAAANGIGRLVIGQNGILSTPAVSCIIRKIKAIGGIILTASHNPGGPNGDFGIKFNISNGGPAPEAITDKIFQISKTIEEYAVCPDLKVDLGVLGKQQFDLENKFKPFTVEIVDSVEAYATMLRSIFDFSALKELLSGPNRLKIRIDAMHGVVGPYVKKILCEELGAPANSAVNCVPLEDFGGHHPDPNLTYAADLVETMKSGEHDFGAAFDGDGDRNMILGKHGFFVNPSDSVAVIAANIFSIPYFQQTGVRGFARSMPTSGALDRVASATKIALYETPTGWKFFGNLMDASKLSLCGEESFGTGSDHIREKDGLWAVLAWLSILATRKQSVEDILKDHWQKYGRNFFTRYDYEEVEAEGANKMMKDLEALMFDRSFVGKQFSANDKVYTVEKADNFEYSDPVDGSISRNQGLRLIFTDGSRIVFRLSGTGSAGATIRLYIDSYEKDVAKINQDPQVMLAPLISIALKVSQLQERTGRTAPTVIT
Text: For microscale-thermophoresis studies, a peptide representing the conserved Zasp motif (ZM) of ZASP/Cypher (26-mer: […]) and a corresponding peptide with the T106I mutation (underscored in sequence) were synthesized by ABI Scientific. A vector for recombinant expression of human PGM1 has been previously described. PGM1 was expressed and purified as previously described.
For binding studies, PGM1 was labeled using a commercial kit (NanoTemper Technologies, Inc.) according to the manufacturer’s specifications. Briefly, PGM1 was incubated at room temperature for 30 min with RED-tris-NTA dye, which specifically labels His6 tags, resulting in 100 nM labeled protein. The wild-type and T106I ZM peptides were serially diluted into a series of 16 PCR strip tubes and mixed 1:1 with labeled PGM1. The final concentration series of each peptide was […] to 11.4 nM, with all tubes containing 50 nM labeled PGM1. Samples were incubated in the dark for 10 min prior to use. Standard capillaries (Nanotemper MO-K022) were used to draw up the liquid and placed onto the sample tray of the Monolith NT.115 instrument (NanoTemper). Measurements were performed at 22 °C with control software at 40% excitation power and 40% MST power. Kd values were calculated using the MO. Affinity software v.2.2.4 (NanoTemper Technologies).

Row | Compound | effect on UDP-hexose levels (in words) [1] | effect on glycosylation (in words) (PGM1-deficient iCMs) | effect on cardiac (and skeletal muscle) manifestations (in words) (PGM1-CDG individuals; galactose therapy in PGM1-CDG, ref [3], [7], [18]) | effect on glycosylation and systemic features (in words) (PGM1-CDG individuals; oral galactose supplementation in PGM1-CDG, ref [1], [3], [12]) | in vitro binding affinity to PGM1 (Kd, in words) (human PGM1)
1 | O=C[C@H](O)[C@@H](O)[C@@H](O)[C@H](O)CO [galactose] | normalize UDP-hexose levels in PGM1-deficient fibroblasts | partially restores glycosylation in PGM1-deficient iCMs; also recorded: sufficient to partially restore glycosylation in PGM1-deficient iCMs | fails to ameliorate cardiac and skeletal muscle involvement; also recorded: cardiac involvement does not respond to galactose therapy; also recorded: cardiac manifestations remain largely refractory to treatment | improves systemic features; also recorded: effective correction of glycosylation defects and improvement of systemic clinical features | 
2 | LDB3 T206I mutant: corresponding peptide with the T106I mutation; dilated cardiomyopathy-associated LDB3 T206I mutant peptide (SSQPRQYNNPIGLYSAEILREMAQMY) |  |  |  |  | substantially reduced binding affinity (high µM)
3 | SSQPRQYNNPIGLYSAETLREMAQMY [wild-type ZM peptide, peptide representing the conserved Zasp motif (ZM) of ZASP/Cypher (26-mer)] |  |  |  |  | high-affinity binding (low µM)
